Experimental findings from patent publication US20090022915A1, “PARTICLE AND PREPARATION CONTAINING THE PARTICLE” (ONO PHARMACEUTICAL CO., LTD.,, priority 2005, published 2009) are described below.

A value given as a limit tells only on which side of the number the result lay.

Series [1] is described as follows: Absorption test, pulmonary administration (2 mg/kg) of suspension. The series is classed as in vivo, rhesus monkeys. The procedure: 1. Pulmonary Administration (2 mg/kg)
Each of three male rhesus monkeys (mean body weight: 3.35 kg, age: 5) was anesthetized with ketamine and, after inserting a bronchial catheter and inserting an administration tube inside the catheter, the suspension produced in Preparation Example 1 was administered into the lung in a dose of 2 mg/kg. Before and after administration (0.25, 0.5, 1, 2, 3, 4, 6, and 8 hours), blood was collected from the cubital cutaneous vein and the obtained blood was centrifugally separated to obtain blood plasma, and then the concentration of the compound 1 was measured.
(§1) 5. Intravenous Administration (0.4 mg/kg)
(§2) The preparation produced in Comparative Example 3 was intravenously administered to each of three male cynomolgus monkeys (mean body weight: 4 kg, age: 5 to 6) in the concentration of 0.4 mg/kg. After administration, blood was collected from the cubital cutaneous vein and the obtained blood was centrifugally separated to obtain blood plasma, and then the concentration of the compound 1 was measured.
(§3) Also, a bioavailability (BA (%)) was calculated from the obtained results.
(§4) BA denotes a numerical value represented by “(AUC of pulmonary administration/dose of pulmonary administration)/(AUC of intravenous administration/dose of intravenous administration)×100” (%), and AUC denotes an area under the blood concentration time curve (ng·hr/ml).

A short description of series [2]: Particle size measurement by laser diffraction particle size distribution analyzer. The series is classed as physicochemical. The note with it: volume mean diameter. How it is done: The “mean particle size” means a particle size which represents a group of particles, when the group of particles is composed of a lot of particles each having a non-uniform size. The mean particle size includes, but is not limited to, weighting averages such as a number mean diameter, a length mean diameter, an area mean diameter, a volume mean diameter and the like, and means the volume mean diameter in the present invention.
For the measurement of the particle size, a hexane solution (20 mM) of Aerosol OT was used as a disperse medium. Particles to be measured were placed in a test tube and 1 mL of the disperse medium was added to obtain a suspension. The suspension was subjected to an ultrasonic treatment for one minute and the particle size was measured using a laser diffraction particle size distribution analyzer (SALD-2100: Shimadzu Corporation). In the case of measuring the particle size of particles in the suspension, an aqueous 0.1% Polysorbate 80 solution was used as the disperse medium in place of Aerosol OT.

The nature of series [3]: Absorption test, oral administration (3 mg/kg) of microemulsion preparation. In kind it is in vivo. Particulars: rhesus monkey, plasma, preparation of Comparative Example 1, male rhesus monkeys, relative to intravenous 0.4 mg/kg, read-out: bioavailability (BA). How it is done:
3. Oral Administration (3 mg/kg)
An oral administration tube was inserted through the mouth of each of three male rhesus monkeys (mean body weight: 3.5 kg, age: 3) and 5.25 mL (3 mg/kg) of the preparation produced in Comparative Example 1 was orally administrated. After administration (0.5, 1, 2, 4, and 6 hours), blood was collected from the cubital cutaneous vein and the obtained blood was centrifugally separated to obtain blood plasma, and then the concentration of the compound 1 was measured.
as §1, §2, §3, §4

Another series can be described thus: Solubility in water. The series is classed as physicochemical.
A short description of series [4]: Absorption test, pulmonary administration (0.2 mg/kg) of suspension. The note with it: cynomolgus monkey, plasma, suspension of Preparation Example 2, male cynomolgus monkeys, relative to intravenous 0.4 mg/kg, read-out: bioavailability (BA). The series is classed as in vivo. The procedure:
2. Pulmonary Administration (0.2 mg/kg)
Each of three male cynomolgus monkeys (mean body weight: 3.5 to 4.5 kg, age: 5 to 6) was anesthetized with ketamine and, after inserting a bronchial catheter and inserting an administration tube inside the catheter, the suspension produced in Preparation Example 2 was administered into the lung in a dose of 0.2 mg/kg. Before and after administration (0.25, 0.5, 1, 2, 3, 4, 8 and 12 hours), blood was collected from the cephalic vein and the obtained blood was centrifugally separated to obtain blood plasma, and then the concentration of the compound 1 was measured.
as §1, §2, §3, §4

Turning to `CC(C)(C)OC(=O)N1CSC[C@H]1C(=O)N[C@@H](CSCC1CCCCC1)C(=O)NC1CCN(Cc2ccccc2)CC1` [compound 1, Tert-butyl (4R)-4-{[((1R)-2-[(1-benzylpiperidin-4-yl)amino]-1-{[(cyclohexylmethyl)thio]methyl}-2-oxoethyl)amino]carbonyl}-1,3-thiazolidine-3-carboxylate], in series [1] (pulmonary administration versus oral administration), the “improvement in BA” value is listed as at least 450 times. Moreover, the bioavailability in series [1] (rhesus monkey, plasma, pulmonary administration 2 mg/kg, suspension of Preparation Example 1, male rhesus monkeys, relative to intravenous 0.4 mg/kg, read-out: bioavailability (BA)) worked out at 93.4%; in series [3], 0.2%; in series [4], 103%. Besides, the “Mean particle size (μm)” value in series [2] was “about 120 μm”. For the same molecule, in the series “Solubility in water”, the solubility in water entry was “poorly soluble in water”.
